Data on twelve compounds can be found in PubChem BioAssay (NCI).

Molecules are shown by their SMILES. Values joined by “and” are separate entries in the source; they are usually repeats but may differ in a detail not shown here. Equal entries are not always repeated.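 1) Cells in 96-well plates. 2) Compound, 48 h, 5 concentrations. 3) Linear interpolation between surrounding doses. 4) Unreached endpoint = highest concentration. GI50: concentration for 50% inhibition of growth. TGI denotes the concentration required for complete inhibition of growth.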 Where only a bound is given, the exact number is not on record here.

Test systems include CAKI-1 renal; CCRF-CEM leukemia; COLO 205 colon; HCT-116 colon; MALME-3M melanoma; RPMI-8226 leukemia; SK-OV-3 ovarian; SNB-75 CNS; SW-620 colon; HS 578T breast.
What all share (test): DTP human tumour cell line panel, 48 h

The GI50 is the concentration that inhibits growth by half. In general, TGI refers to the concentration at which net growth stops. A low value points to more potent growth arrest. Turning to `CC(=O)OCC1OC(OC2CC3C(C)(C)C(O)CC[C@]3(C)C3CCC45CC4(CC[C@H]5C(C)CC(O)C4OC4(C)C)[C@]23C)C(O)C(O)C1O` (stereo not given in full), the GI50 in the experiment with CAKI-1 renal is 19.6 µM; in the experiment on CCRF-CEM leukemia, 2.56 µM; in the experiment with COLO 205 colon, 3.4 µM; with HCT-116 colon, 3.57 µM; in the experiment on MALME-3M melanoma, 4.52 µM; in the experiment on RPMI-8226 leukemia, 2.49 µM. The values for the GI50 with SK-OV-3 ovarian, in the experiment with SNB-75 CNS and with SW-620 colon were 15.7 µM, 13.7 µM and 4.74 µM, respectively. Besides, the TGI in the experiment with CAKI-1 renal was 17.1 µM and 34.4 µM; in the experiment on CCRF-CEM leukemia it was 6.74 µM and 6.72 µM; in the experiment with COLO 205 colon, 13.8 µM and 11.9 µM; in the experiment with HCT-116 colon it was 16.3 µM and 21.8 µM; in the experiment with MALME-3M melanoma it was 16.5 µM and 20.8 µM; in the experiment on RPMI-8226 leukemia, 2.41 µM and 7.16 µM. Further, the TGI with SK-OV-3 ovarian is 15 µM and 29.2 µM; in the experiment on SNB-75 CNS, 15 µM and 26.6 µM; in the experiment on SW-620 colon, 16.5 µM and 16.9 µM.

For `C1OC1CO[C@@H]1CO[C@H]2[C@@H]1OC[C@H]2OCC1CO1` (stereo not given in full), the TGI with CAKI-1 renal, in the experiment with CCRF-CEM leukemia, in the experiment with COLO 205 colon, with HCT-116 colon, with MALME-3M melanoma and with RPMI-8226 leukemia was > 100 µM each time. The TGI with SK-OV-3 ovarian, in the experiment on SNB-75 CNS and with SW-620 colon was > 100 µM throughout.

Regarding `COc1ccc(/C=C\c2cc(OC)c(OC)c(OC)c2)cc1OC(=O)CCC(=O)O`, the 50% growth inhibitory concentration (GI50) with CAKI-1 renal is < 0.0001 µM; in the experiment with COLO 205 colon it was 1.68 µM; in the experiment with SK-OV-3 ovarian it was 0.0442 µM. The TGI was > 100 µM in the experiment with CAKI-1 renal; > 100 µM in the experiment on CCRF-CEM leukemia; 38.5 µM in the experiment with COLO 205 colon; > 100 µM in the experiment on HS 578T breast; > 100 µM in the experiment with RPMI-8226 leukemia; > 100 µM in the experiment with SK-OV-3 ovarian. In addition, the TGI in the experiment on SNB-75 CNS and in the experiment on SW-620 colon was > 100 µM throughout.

For `CCOC(=O)C1SC(=Nc2ccc(Cl)c(Cl)c2)N=C1C` (stereo not given), the total growth inhibition concentration (TGI) in the experiment on CAKI-1 renal was > 100 µM; in the experiment on CCRF-CEM leukemia it was 31.3 µM; in the experiment on COLO 205 colon, 76.3 µM; in the experiment with MALME-3M melanoma, > 100 µM; in the experiment on RPMI-8226 leukemia, 56.9 µM; with SK-OV-3 ovarian, > 100 µM. Also, the TGI in the experiment with SNB-75 CNS was 58.9 µM; in the experiment with SW-620 colon, > 100 µM.

With `Cc1cc(NS(=O)(=O)c2ccc(NC(=O)c3cccc4c(Nc5ccc(S(=O)(=O)N=C(N)N)cc5)c5ccccc5nc34)cc2)no1`, the TGI with CAKI-1 renal, with COLO 205 colon, with HCT-116 colon, in the experiment on MALME-3M melanoma, in the experiment on RPMI-8226 leukemia and in the experiment with SK-OV-3 ovarian was > 100 µM throughout. In addition, the concentration for total growth inhibition (TGI) in the experiment on SNB-75 CNS and with SW-620 colon was > 100 µM each time.

As to `CC#CC1/C(=C\C(=O)OC)CCCC1O` (stereo not given), the TGI with CAKI-1 renal, with CCRF-CEM leukemia, with HCT-116 colon, in the experiment with MALME-3M melanoma, in the experiment on SK-OV-3 ovarian and in the experiment with SNB-75 CNS was > 100 µM each time. Further, the TGI in the experiment with SW-620 colon was > 100 µM.

For the compound `COc1ccc(/C=C/C(=O)Oc2cc(O)cc(O)c2)cc1`, the TGI in the experiment with CAKI-1 renal is 31 µM; in the experiment on CCRF-CEM leukemia it was 37.3 µM; in the experiment with COLO 205 colon, > 100 µM; in the experiment on HCT-116 colon, 39.5 µM; in the experiment on MALME-3M melanoma it was > 100 µM; in the experiment on RPMI-8226 leukemia it was 42.4 µM. The TGI in the experiment with SK-OV-3 ovarian, in the experiment with SNB-75 CNS and in the experiment with SW-620 colon was > 100 µM in each case.

Regarding `Nc1c(C(=O)Nc2ccccc2)[n+]([O-])c2ccccc2[n+]1[O-]`, the total growth inhibition concentration (TGI) in the experiment on CAKI-1 renal is 16.8 µM; in the experiment with CCRF-CEM leukemia it was > 100 µM; in the experiment with COLO 205 colon, 29.3 µM; in the experiment on RPMI-8226 leukemia it was > 100 µM; in the experiment on SK-OV-3 ovarian, > 100 µM; in the experiment on SNB-75 CNS it was 34 µM. The total growth inhibition concentration (TGI) in the experiment on SW-620 colon stood at 38.3 µM.

`O=C(C(=O)N1CC2C=CC1CC2)c1c[nH]c2ccccc12` (stereo not given): the TGI in the experiment with CAKI-1 renal, with CCRF-CEM leukemia, with COLO 205 colon, with HCT-116 colon, with MALME-3M melanoma and in the experiment on RPMI-8226 leukemia was > 100 µM in each case. In addition, the TGI with SK-OV-3 ovarian, in the experiment on SNB-75 CNS and in the experiment on SW-620 colon was > 100 µM each time.

For `CC1=CCC23C(C1)OC(Br)(C=CC2(C)O)C3(C)C` (stereo not given), the TGI in the experiment on CAKI-1 renal, in the experiment on CCRF-CEM leukemia, with COLO 205 colon, with HCT-116 colon, in the experiment with MALME-3M melanoma and in the experiment on SNB-75 CNS was > 100 µM each time. For the same compound, in the experiment on SW-620 colon, the TGI is > 100 µM.

Turning to `Cc1ccc(-c2cc(C3=CC(=O)C=CC3=O)n(-c3ccc(S(N)(=O)=O)cc3)n2)cc1`, the GI50 in the experiment on CAKI-1 renal is 52.3 µM; with CCRF-CEM leukemia it was > 100 µM; in the experiment on COLO 205 colon, 53.9 µM; in the experiment on HCT-116 colon, 17.3 µM; in the experiment with HS 578T breast it was 64.8 µM; in the experiment with RPMI-8226 leukemia, 6.17 µM. In addition, the GI50 with SW-620 colon is 44.5 µM. For the same compound, the TGI is > 100 µM in the experiment on CAKI-1 renal; > 100 µM in the experiment on CCRF-CEM leukemia; > 100 µM in the experiment with COLO 205 colon; 33 µM in the experiment on HCT-116 colon; > 100 µM in the experiment on HS 578T breast; 70.2 µM in the experiment with RPMI-8226 leukemia. Besides, the concentration for total growth inhibition (TGI) with SW-620 colon is > 100 µM.

Regarding `S=C1Nc2ccc(Cl)cc2C2(c3ccccc3)N3CCN=C3NN12` (stereo not given), the GI50 is 48.8 µM with CAKI-1 renal; 26.9 µM with CCRF-CEM leukemia; 26.3 µM in the experiment on COLO 205 colon; 29.4 µM with HCT-116 colon; 23.5 µM in the experiment with MALME-3M melanoma; 21.7 µM in the experiment on RPMI-8226 leukemia. Besides, the GI50 was > 100 µM with SK-OV-3 ovarian, 17.6 µM in the experiment with SNB-75 CNS and 29.2 µM in the experiment on SW-620 colon. The TGI is > 100 µM in the experiment with CAKI-1 renal; 70.7 µM in the experiment with CCRF-CEM leukemia; > 100 µM in the experiment on COLO 205 colon; > 100 µM with HCT-116 colon; 78.4 µM in the experiment on MALME-3M melanoma; 57.3 µM in the experiment on RPMI-8226 leukemia. For the same compound, the total growth inhibition concentration (TGI) was > 100 µM in the experiment with SK-OV-3 ovarian, > 100 µM in the experiment on SNB-75 CNS and 83.5 µM with SW-620 colon.
